Experimental data published in US20250008996A1, “Flavored Food and Beverage Products” (Firmenich SA, priority 2014, published 2025).

How the values were obtained:
Type in all cases: in vivo
[1] = Sweetness intensity in 150 ppm Reb.A in water, four trained experts (Example 9)
Description: Example 9: Three samples were prepared and compared with 150 ppm Reb.A (PureCircle) in water; equisweet to 3.5% sucrose (in red, FIG. 9). The first sample comprised 150 ppm Reb.A with 10 ppm Naringenin. The second sample was a 150 ppm Reb.A with 25 ppm Naringenin. The third sample comprised 150 ppm Reb.A with 50 ppm Naringenin. All samples were tested for sweetness intensity at room Temperature by four experts especially trained to evaluate sweet products.

[2] = Sweetness intensity in 300 ppm Reb.A in water, four trained experts (Example 10)
Description: Example 10: Six samples were prepared and compared with 300 ppm Reb.A in water; 100% sweetness level (in red, FIG. 10). The first sample comprised 300 ppm Reb. A with 10 ppm Naringenin. The second sample was a 300 ppm Reb.A with 25 ppm Naringenin. The third sample was a 300 ppm Reb.A with 50 ppm Naringenin. The fourth sample comprised 300 ppm Reb.A with 75 ppm Naringenin. The fifth sample was a 300 ppm Reb.A with 100 ppm Naringenin. The sixth sample was a 300 ppm Reb.A with 150 ppm Naringenin. All samples were tested for sweetness intensity at room Temperature by four experts especially trained to evaluate sweet products. […] On the other hand, the addition of 100 and 150 ppm Naringenin to 300 ppm Reb.A solution has a small loss of sweetness (8%).

[3] = Sweetness intensity in sucrose solution, thirty participants (Example 2); conditions: 125 ppm Naringenin in 5% sucrose solution in water
Description: Example 2. Two samples were prepared. The first sample was a 6% sucrose solution in water. The second sample was a 5% sucrose solution in water with 125 ppm Naringenin. The samples were tested for sweetness intensity by thirty participants.

[4] = Tasting of Naringenin alone and combined with sweeteners (summary statements); conditions: combined with other sweeteners, some embodiments
Description: However, when combined with others sweeteners, Naringenin provides sweetness enhancement to composition comprising a sweetener. In some embodiments, Naringenin provides a sweetness equivalent to 1-2° brix of sucrose equivalents.

Compound | equisweet sucrose level ([1]; 150 ppm Reb.A in water without Naringenin) [% sucrose] | sweetness intensity reached, as sucrose level ([1]; 50 ppm Naringenin in 150 ppm Reb.A solution, room temperature) [% sucrose] | equisweet Reb.A level in water ([2]; 10 to 75 ppm Naringenin in 300 ppm Reb.A solution) [ppm Reb.A] | sweetness enhancement effect ([2]; 10 to 75 ppm Naringenin in 300 ppm Reb.A solution, 300 ppm Reb.A = 100%) [%] | loss of sweetness ([2]; 100 and 150 ppm Naringenin in 300 ppm Reb.A solution, 300 ppm Reb.A = 100%) [%] | sweetness level reached, as sucrose solution without Naringenin [3] [% sucrose] | sweetness provided, sucrose equivalents [4]
C=C1C[C@@]23CC[C@H]4[C@@](C)(CCC[C@@]4(C)C(=O)O[C@@H]4O[C@H](CO)[C@@H](O)[C@H](O)[C@H]4O)[C@@H]2CC[C@]1(O[C@@H]1O[C@H](CO)[C@@H](O)[C@H](O[C@@H]2O[C@H](CO)[C@@H](O)[C@H](O)[C@H]2O)[C@H]1O[C@@H]1O[C@H](CO)[C@@H](O)[C@H](O)[C@H]1O)C3 [Reb.A, rebaudioside A, reference compound] | 3.5 | – | – | – | – | – | –
O=C1C[C@@H](c2ccc(O)cc2)Oc2cc(O)cc(O)c21 [Naringenin, 2,3-Dihydro-5,7-dihydroxy-2(-4-hydroxyphenyl)-4H-1-bcmzopyran-4-one] | – | 4 | 350 | 17 | 8 | ~6 | 1-2 ° brix of sucrose equivalents
